Among the data in patent US8202885B2, “Bridged six-membered ring compounds” (Actelion Pharmaceuticals Ltd., priority 2007, dated 2012) are IC50 values, retold here.

pIC50: −log10 of the molar value.

By pIC50 is commonly meant −log10 of the IC50, conventionally taken in molar units.

The subject of this test is human Cav3.1 Cav3.2 or Cav3.3 channel. The test is described as follows: In vitro assay T channel (FLIPR calcium fluorescence). It is filed as cell-based. The settings on record: HEK293 cells expressing human Cav3.1, Cav3.2 or Cav3.3; 10 mM Ca2+-induced fluo-4 fluorescence; determined up to 10 μM; read-out: T channel antagonistic activity IC50. The protocol: The T channel antagonistic activity (IC50 values) of the compounds of formula (I) is determined in accordance with the following experimental method and data are shown in Table 1.
Human embryonic kidney (HEK293) cells expressing the human Cav3.1 Cav3.2 or Cav3.3 channel, respectively, are grown in culture medium (DMEM containing 10% heat-inactivated fetal calf serum (FCS), 100 U/ml penicillin, 100 μg/ml streptomycin and 1 mg/ml G418). The cells are seeded at 20.000 cells/well into 384-well black clear bottom sterile plates (poly-L-lysine-coated, Becton Dickinson). The seeded plates are incubated overnight at 37° C. in 5% CO2. The Ca^2+ solution is prepared as 100 mM stock solution in 100 mM tetraethylammoniumchloride (TEA-chloride), 50 mM HEPES, 2.5 mM CaCl2, 5 mM KCl, 1 mM MgCl2, adjusted to pH 7.2 with TEA-hydroxide, for use in the assay at a final concentration of 10 mM. Antagonists are prepared as 10 mM stock solutions in DMSO, then diluted in 384 w plates first in DMSO, then in 100 mM TEA-chloride, 50 mM HEPES, 2.5 mM CaCl2, 5 mM KCl, 1 mM MgCl2, adjusted to pH 7.2 with TEA-hydroxide, to obtain 9× stocks. On the day of the assay, 25 μl of staining buffer (HBSS containing 20 mM HEPES, 0.375 g/l NaHCO3 and 3 μM of the fluorescent calcium indicator fluo-4 AM (1 mM stock solution in DMSO, containing 10% pluronic) is added to each well of the seeded plate. The 384-well cell-plates are incubated for 60 min at 37° C. in 5% CO2 followed by washing with 2×50 μl per well using HBSS containing 0.1% BSA, 20 mM HEPES, 0.375 g/l NaHCO3, leaving 50 […] of this buffer for equilibration at room temperature (30-60 min). Within the Fluorescent Imaging Plate Reader (FLIPR, Molecular Devices), antagonists are added to the plate in a volume of 6.25 μl/well, incubated for 3 min, and finally 6.25 […] of Ca^2+ solution is added. Fluorescence is measured for each well at 2 second intervals for 8 minutes, and the area under the curve of each fluorescence peak is compared to the area of the fluorescence peak induced by 10 mM Ca^2+ with vehicle in place of antagonist. For each antagonist, the IC50 value (the concentration (in nM) of compound needed to inhibit 50% of the Ca^2+-induced fluorescence response) up to 10 μM is determined.
With `COc1ccccc1C1=C[C@H]2CC[C@@H]1C[C@]2(CCN(C)CCCc1nc2ccccc2[nH]1)OC(=O)C(C)C` (relative stereo) [Example 23A, rac-Isobutyric acid (1R*,2R*,4R*)-2-(2-{[3-(1H-benzoimidazol-2-yl)-propyl]-methyl-amino}-ethyl)-5-(2-methoxy-phenyl)-bicyclo[2.2.2]oct-5-en-2-yl ester], the pIC50 is 5.40. The same measure for `CN(CCCc1nc2ccccc2[nH]1)CC[C@]1(O)C[C@H]2CC[C@@H]1C=C2c1nccs1` (relative stereo) [Example 24, rac-(1R*,2R*,4R*)-2-(2-{[3-(1H-Benzoimidazol-2-yl)-propyl]-methyl-amino}-ethyl)-5-thiazol-2-yl-bicyclo[2.2.2]oct-5-en-2-ol]: less than 5.00.

`CC(C)C(=O)O[C@@]1(CCN(C)CCCc2nc3ccccc3[nH]2)C[C@H]2CC[C@@H]1C=C2c1nccs1` (relative stereo) [Example 24A, rac-Isobutyric acid (1R*,2R*,4R*)-2-(2-{[3-(1H-benzoimidazol-2-yl)-propyl]-methyl-amino}-ethyl)-5-thiazol-2-yl-bicyclo[2.2.2]oct-5-en-2-yl ester]: the negative logarithm of the IC50 (pIC50) was 5.56. In the case of `CC(C)C(=O)O[C@@]1(CCN(C)CCCc2nc3ccccc3[nH]2)C[C@H]2CC[C@@H]1C=C2c1ncco1` (relative stereo) [Example 25A, rac-Isobutyric acid (1R*,2R*,4R*)-2-(2-{[3-(1H-benzoimidazol-2-yl)-propyl]-methyl-amino}-ethyl)-5-oxazol-2-yl-bicyclo[2.2.2]oct-5-en-2-yl ester], the pIC50 is 5.80. The same measure for `COc1cccc2[nH]c(CCCN(C)CC[C@]3(O)C[C@H]4CC[C@@H]3C=C4c3ccccc3)nc12` (relative stereo) [Example 26, rac-(1R*,2R*,4R*)-2-(2-{[3-(4-Methoxy-1H-benzoimidazol-2-yl)-propyl]-methyl-amino}-ethyl)-5-phenyl-bicyclo[2.2.2]oct-5-en-2-ol]: less than 5.00; for `COc1cccc2[nH]c(CCCN(C)CC[C@]3(OC(=O)C(C)C)C[C@H]4CC[C@@H]3C=C4c3ccccc3)nc12` (relative stereo) [Example 26A, rac-Isobutyric acid (1R*,2R*,4R*)-2-(2-{[3-(4-methoxy-1H-benzoimidazol-2-yl)-propyl]-methyl-amino}-ethyl)-5-phenyl-bicyclo[2.2.2]oct-5-en-2-yl ester]: 5.68; for `COc1cccc2[nH]c(CCCN(C)CC[C@]3(OC(=O)C4CCC4)C[C@H]4CC[C@@H]3C=C4c3ccccc3)nc12` (relative stereo) [Example 26B, rac-Cyclobutanecarboxylic acid (1R*,2R*,4R*)-2-(2-{[3-(4-methoxy-1H-benzoimidazol-2-yl)-propyl]-methyl-amino}-ethyl)-5-phenyl-bicyclo[2.2.2]oct-5-en-2-yl ester]: less than 5.00. In the case of `COc1cccc2[nH]c(CCCN(C)CC[C@]3(OC(=O)C(C)(C)C)C[C@H]4CC[C@@H]3C=C4c3ccccc3)nc12` (relative stereo) [Example 26D, rac-2,2-Dimethyl propionic acid (1R*,2R*,4R*)-2-(2-{[3-(4-methoxy-1H-benzoimidazol-2-yl)-propyl]-methyl-amino}-ethyl)-5-phenyl-bicyclo[2.2.2]oct-5-en-2-yl ester], the negative-log IC50 (pIC50) was 5.98.

Take `COc1cccc2[nH]c(CCCN(C)CC[C@]3(OC(=O)NC(C)C)C[C@H]4CC[C@@H]3C=C4c3ccccc3)nc12` (relative stereo) [Example 26E, rac-Isopropyl-carbamic acid (1R*,2R*,4R*)-2-(2-{[3-(4-methoxy-1H-benzoimidazol-2-yl)-propyl]-methyl-amino}-ethyl)-5-phenyl-bicyclo[2.2.2]oct-5-en-2-yl ester]: the pIC50 is 5.95.

In the case of `COc1cccc2[nH]c(CCCN(C)CC[C@]3(OC(=O)C(C)(C)OC)C[C@H]4CC[C@@H]3C=C4c3ccccc3)nc12` (relative stereo) [Example 26F, rac-2-Methoxy-2-methyl-propionic acid (1R*,2R*,4R*)-2-(2-{[3-(4-methoxy-1H-benzoimidazol-2-yl)-propyl]-methyl-amino}-ethyl)-5-phenyl-bicyclo[2.2.2]oct-5-en-2-yl ester], the pIC50 is 6.02. For the molecule `COc1cccc2[nH]c(CCCN(C)CC[C@]3(OC(=O)OC(C)C)C[C@H]4CC[C@@H]3C=C4c3ccccc3)nc12` (relative stereo) [Example 26G, rac-Carbonic acid isopropyl ester (1R*,2R*,4R*)-2-(2-{[3-(4-methoxy-1H-benzoimidazol-2-yl)-propyl]-methyl-amino}-ethyl)-5-phenyl-bicyclo[2.2.2]oct-5-en-2-yl ester], the pIC50 is 6.03. For `CN(CCCc1nc2cc(Cl)c(Cl)cc2[nH]1)CC[C@]1(O)C[C@H]2CC[C@@H]1C=C2c1ccccc1` (relative stereo) [Example 27, rac-(1R*,2R*,4R*)-2-(2-{[3-(5,6-Dichloro-1H-benzoimidazol-2-yl)-propyl]-methyl-amino}-ethyl)-5-phenyl-bicyclo[2.2.2]oct-5-en-2-ol], the negative-log IC50 (pIC50) was less than 5.00. With `CC(C)C(=O)O[C@@]1(CCN(C)CCCc2nc3cc(Cl)c(Cl)cc3[nH]2)C[C@H]2CC[C@@H]1C=C2c1ccccc1` (relative stereo) [Example 27A, rac-Isobutyric acid (1R*,2R*,4R*)-2-(2-{[3-(5,6-dichloro-1H-benzoimidazol-2-yl)-propyl]-methyl-amino}-ethyl)-5-phenyl-bicyclo[2.2.2]oct-5-en-2-yl ester], the pIC50 was 5.17. `CN(CCCc1nc2cc(Cl)c(Cl)cc2[nH]1)CC[C@]1(OC(=O)C2CC2)C[C@H]2CC[C@@H]1C=C2c1ccccc1` (relative stereo) [Example 27B, rac-Cyclopropanecarboxylic acid (1R*,2R*,4R*)-2-(2-{[3-(5,6-dichloro-1H-benzoimidazol-2-yl)-propyl]-methyl-amino}-ethyl)-5-phenyl-bicyclo[2.2.2]oct-5-en-2-yl ester]: the pIC50 is 5.32. The same measure for `COc1cc2nc(CCCN(C)CC[C@]3(O)C[C@H]4CC[C@@H]3C=C4c3ccccc3)[nH]c2cc1OC` (relative stereo) [Example 28, rac-(1R*,2R*,4R*)-2-(2-{[3-(5,6-Dimethoxy-1H-benzoimidazol-2-yl)-propyl]-methyl-amino}-ethyl)-5-phenyl-bicyclo[2.2.2]oct-5-en-2-ol]: 5.60; for `COc1cc2nc(CCCN(C)CC[C@]3(OC(=O)C(C)C)C[C@H]4CC[C@@H]3C=C4c3ccccc3)[nH]c2cc1OC` (relative stereo) [Example 28A, rac-Isobutyric acid (1R*,2R*,4R*)-2-(2-{[3-(5,6-dimethoxy-1H-benzoimidazol-2-yl)-propyl]-methyl-amino}-ethyl)-5-phenyl-bicyclo[2.2.2]oct-5-en-2-yl ester]: 5.46; for `COc1ccc2[nH]c(CCCN(C)CC[C@]3(O)C[C@H]4CC[C@@H]3C=C4c3ccccc3)nc2c1` (relative stereo) [Example 29, rac-(1R*,2R*,4R*)-2-(2-{[3-(5-Methoxy-1H-benzoimidazol-2-yl)-propyl]-methyl-amino}-ethyl)-5-phenyl-bicyclo[2.2.2]oct-5-en-2-ol]: less than 5.00.
